Reference: patent EP4458825A1, “SALT OF AMINOPYRIMIDINE COMPOUND AND USE THEREOF” (Sunshine Lake Pharma Co., Ltd., priority 2021, dated 2023)
Where a name gives a salt, the structure may show the parent alone. Blank lines part the entries; values can stand above or below the molecule they belong to.

Assays:
[1] = Pharmacokinetics test in SD rats (oral gavage, PEG400 suspension); format: in vivo; conditions: 200 mg/kg
Method: The salt of the compound shown in formula (I) and the free base crystal form 2 of the compound shown in formula (I) of the present invention were respectively prepared into a suspension using PEG400, and the male SD rats were given 200 mg/kg test samples orally by gavage, and 3 animals in each group were given. Blood was collected at time points 0.25, 0.5, 1.0, 2.0, 5.0, 7.0 and 24 h after administration. Standard curve was plotted based on concentrations of the samples in a suitable range, the concentration of the test sample in the plasma sample was measured and quantified by AB SCIEX API4000-type LC-MS / MS at MRM mode. Pharmacokinetic parameters were calculated according to drug concentration -time curve using a noncompartmental by WinNonLin 6.3 software. Table 2 Pharmacokinetic experimental results data of salt and free base crystal form 2 of the present invention in male SD rats

[2] = Pharmacokinetics test in Beagle dogs (oral capsules); format: in vivo; conditions: for Tmax / AUClast / Cmax: 10 mg/kg, male Beagle dogs, oral capsules
Method: The salt of the compound shown in formula (I) and the free base crystal form 2 of the compound shown in formula (I) of the present invention were respectively filled with capsules for oral administration.
Male Beagle dogs of 8-12 kg were divided into 2 groups, 3 dogs in each group, and capsules containing test samples were orally administered at a dose of 10 mg/kg, and blood was collected at time points of 0.25, 0.5, 1.0, 2.0, 4.0, 6.0, 8.0 and 24 h. Standard curve was plotted based on concentrations of the samples in a suitable range, the concentration of the test sample in the plasma sample was measured and quantified by AB SCIEX API4000-type LC-MS / MS at MRM mode. Pharmacokinetic parameters were calculated according to drug concentration -time curve using a noncompartmental method by WinNonLin 6.3 software. Table 1 Pharmacokinetic experimental results data of salt and free base crystal form 2 of the present invention in Beagle dogs

Long-term stability test = format: physicochemical; conditions: for Purity: long-term, 5 °C ± 3 °C, packaged, HPLC
Method: Long-term stability test: The samples were inspected under the conditions of single-layer PE inner packaging, aluminum foil bag outer packaging, built-in KD-20 oxygen absorber, and vacuum nitrogen filling and heat sealing packaging, low temperature 5 °C ± 3 °C long-term test conditions, and the sample color was observed. The purity of the sample was determined by HPLC.

[3] = Stability test: high-temperature test; format: physicochemical; conditions: for Purity: HPLC
Method: (§1) High-temperature test: The salt of the compound shown in formula (I) of the present invention was taken an appropriate amount and put into a flat weighing flask, divided into ≤ 3 mm thick thin layer. The samples were placed at 60 °C and 40 °C for 30 days. The samples were sampled at day 5, day 10 and day 30, and the sample color was observed. The purity of the sample was determined by HPLC.

[4] = Stability test: high-humidity test; format: physicochemical; conditions: for Purity: HPLC
Method: as §1, with “High-humidity” for “High-temperature”, “25 °C, RH 90% ± 5%” for “60 °C”, “25 °C, RH 75% ± 5%” for “40 °C”

[5] = High temperature (40°C), 5 days
[6] = High temperature (40°C), 10 days
[7] = High temperature (40°C), 30 days
[8] = High temperature (60°C), 5 days
[9] = High temperature (60°C), 10 days
[10] = High temperature (60°C), 30 days
[11] = High humidity RH75%, 25 °C, 5 days
[12] = High humidity RH75%, 25 °C, 10 days
[13] = High humidity RH75%, 25 °C, 30 days
[14] = High humidity RH90%, 25 °C, 5 days
[15] = High humidity RH90%, 25 °C, 10 days
[16] = High humidity RH90%, 25 °C, 30 days
[17] = in Beagle dogs, compared with free base crystal form 2

SMILES: Cc1noc(-c2c(N)ncnc2N[C@@H](C)c2nc3cccc(C#CCO)c3c(=O)n2-c2ccccc2)n1 [(S)-2-(1-((6-amino-5-(3-methyl-1,2,4-oxadiazol-5-yl)pyrimidin-4-yl)amino)ethyl)-5-(3-hydroxyprop-1-yn-1-yl)-3-phenylquinazolin-4(3H)-one]
Tmax ([2]; male, Beagle, dog, plasma, po, read-out: Tmax): 3 ± 1.7 h
AUC(0-t) ([1]; male, SD, rat, plasma, po): 55200 ± 8700 ng·h/mL
Tmax ([1]; male, SD, rat, plasma, po, read-out: Tmax): 1.33 ± 0.58 h

SMILES: Cc1noc(-c2c(N)ncnc2N[C@@H](C)c2nc3cccc(C#CCO)c3c(=O)n2-c2ccccc2)n1 [crystal form A of p-toluenesulfonate salt] [(S)-2-(1-((6-amino-5-(3-methyl-1,2,4-oxadiazol-5-yl)pyrimidin-4-yl)amino)ethyl)-5-(3-hydroxyprop-1-yn-1-yl)-3-phenylquinazolin-4(3H)-one]
appearance and purity (Long-term stability test; condition of long-term stability test): no obvious change
Purity (Long-term stability test; 0 day): 99.27%
Purity (Long-term stability test; 3 months): 99.26%
Purity (Long-term stability test; 6 months): 99.23%
Purity (Long-term stability test; 9 months): 99.26%
Purity (Long-term stability test; 12 months): 99.27%
Purity (Long-term stability test; 18 months): 99.24%
Purity (Long-term stability test; 24 months): 99.24%
Outward ([3]; 0 day): Light yellow powder
Purity ([3]; 0 day): 99.78%
Outward [3, 5]: Light yellow powder
Purity [3, 5]: 99.74%
Outward [3, 6]: Light yellow powder
Purity [3, 6]: 99.78%
Outward [3, 7]: Light yellow powder
Purity [3, 7]: 99.69%
Outward [3, 8]: Light yellow powder
Purity [3, 8]: 99.61%
Outward [3, 9]: Light yellow powder
Purity [3, 9]: 99.44%
Outward [3, 10]: Light yellow powder
Purity [3, 10]: 99.1%
appearance and purity ([3]; conditions of high temperature): not significantly changed
Outward ([4]; 0 day): Light yellow powder
Purity ([4]; 0 day): 99.78%
Outward [4, 11]: Light yellow powder
Purity [4, 11]: 99.69%
Outward [4, 12]: Light yellow powder
Purity [4, 12]: 99.69%
Outward [4, 13]: Light yellow powder
Purity [4, 13]: 99.65%
Outward [4, 14]: Light yellow powder
Purity [4, 14]: 99.75%
Outward [4, 15]: Light yellow powder
Purity [4, 15]: 99.78%
Outward [4, 16]: Light yellow powder
Purity [4, 16]: 99.81%
appearance and purity ([4]; conditions of high humidity): not significantly changed
blood concentration [2, 17]: higher
exposure [2, 17]: higher
AUClast [2]: 84200 ± 20000 ng·h/mL
Cmax [2]: 8400 ± 1800 ng/mL
Cmax ([1]; male SD rats): 6810 ± 1700 ng/mL

SMILES: Cc1noc(-c2c(N)ncnc2N[C@@H](C)c2nc3cccc(C#CCO)c3c(=O)n2-c2ccccc2)n1 [crystal form A of Sulfate salt, (S)-2-(1-((6-amino-5-(3-methyl-1,2,4-oxadiazol-5-yl)pyrimidin-4-yl)amino)ethyl)-5-(3-hydroxyprop-1-yn-1-yl)-3-phenylquinazolin-4(3H)-one]
AUClast ([1]; male SD rats): 35300 ± 8920 ng·h/mL
Cmax ([1]; male SD rats): 3310 ± 993 ng/mL
Tmax ([1]; male SD rats): 1.17 ± 0.764 h

SMILES: Cc1noc(-c2c(N)ncnc2N[C@@H](C)c2nc3cccc(C#CCO)c3c(=O)n2-c2ccccc2)n1 [Free base crystal form 2, (S)-2-(1-((6-amino-5-(3-methyl-1,2,4-oxadiazol-5-yl)pyrimidin-4-yl)amino)ethyl)-5-(3-hydroxyprop-1-yn-1-yl)-3-phenylquinazolin-4(3H)-one]
AUClast [2]: 26700 ± 6300 ng·h/mL
Cmax [2]: 2480 ± 600 ng/mL
Tmax [2]: 2.36 ± 1.2 h
AUClast ([1]; male SD rats): 39800 ± 7600 ng·h/mL
Cmax ([1]; male SD rats): 5800 ± 850 ng/mL
Tmax ([1]; male SD rats): 1.67 ± 0.58 h

Other lines, results leading:

AUClast ([1]; male SD rats): 37800 ± 6550 ng·h/mL
Cmax ([1]; male SD rats): 3950 ± 1500 ng/mL
Tmax ([1]; male SD rats): 1.50 ± 0.866 h
SMILES: Cc1noc(-c2c(N)ncnc2N[C@@H](C)c2nc3cccc(C#CCO)c3c(=O)n2-c2ccccc2)n1 [crystal form A of phosphate salt, (S)-2-(1-((6-amino-5-(3-methyl-1,2,4-oxadiazol-5-yl)pyrimidin-4-yl)amino)ethyl)-5-(3-hydroxyprop-1-yn-1-yl)-3-phenylquinazolin-4(3H)-one]

AUClast ([1]; male SD rats): 40600 ± 183 ng·h/mL
Cmax ([1]; male SD rats): 4080 ± 375 ng/mL
Tmax ([1]; male SD rats): 1.50 ± 0.866 h
SMILES: Cc1noc(-c2c(N)ncnc2N[C@@H](C)c2nc3cccc(C#CCO)c3c(=O)n2-c2ccccc2)n1 [crystal form A of bisulfate salt, (S)-2-(1-((6-amino-5-(3-methyl-1,2,4-oxadiazol-5-yl)pyrimidin-4-yl)amino)ethyl)-5-(3-hydroxyprop-1-yn-1-yl)-3-phenylquinazolin-4(3H)-one]
